{"source": "patent US11992494B2", "about": "“Cyclopentathiophene carboxamide derivatives as platelet activating factor receptor antagonists” (Boehringer Ingelheim International GmbH, priority 2021, dated 2024)"}
{"biological_target": "PAFR (Homo sapiens, UniProt P25105)", "sequence (P25105 whole entry)": "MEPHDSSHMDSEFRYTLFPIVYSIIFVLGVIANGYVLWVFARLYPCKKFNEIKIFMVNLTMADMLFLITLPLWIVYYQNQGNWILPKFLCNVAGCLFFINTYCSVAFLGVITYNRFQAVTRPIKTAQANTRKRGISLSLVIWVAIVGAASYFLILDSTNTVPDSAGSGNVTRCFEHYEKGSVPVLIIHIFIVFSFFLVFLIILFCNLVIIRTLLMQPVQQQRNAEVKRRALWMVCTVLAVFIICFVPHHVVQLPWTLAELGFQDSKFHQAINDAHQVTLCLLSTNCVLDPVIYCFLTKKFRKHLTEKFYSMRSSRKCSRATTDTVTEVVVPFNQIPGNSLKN", "assay": "cellular HTRF IP1 assay: inhibition of PAFR activation by PAF C-16 ligand (endpoint assay)", "type": "cell-based", "set-up": "expressed in transfected cells; host or cells: HEK293", "details": "HEK293 cells overexpressing human PAFR; PAF ligand 11 nM; Table 2", "method": "(§1) The ability of compounds of formula (I) to inhibit the activation of the PAF receptor (PAFR) by the PAF C-16 ligand (PAF) is determined using the following cellular HTRF IP1 assay (IP1 Gq assay kit from Cisbio, Cat. no.: 62IP1APEJ) in assay buffer (1×HBSS, 20 mM Hepes, pH 7.4, 50 mM LiCl and containing 0.1% (w/v) BSA):\n(§2) Evaluation of the Inhibition of PAFR Activation Using an Endpoint Assay\n(§3) HEK293 cells overexpressing human PAFR (produced in-house) are seeded into a Poly-D-Lysine coated 384 well white cell culture microtiter assay plate with lid (15.000 cells per well). Subsequently, the plates are incubated over night at 37° C./5% CO2. On the next day, cells are being washed and subsequently, various concentrations of the test compounds (compounds in 100% DMSO; final concentration of DMSO in wells is 1%) are added to the assay plate via Echo 555 acoustic liquid handler. Plates are then incubated with lid for 90 minutes at 37° C./5% CO2. Thereafter, PAF ligand (Cayman Chemical Company, Item no.: 60900) is added at a final concentration of 11 nM. Plates are then incubated with lid for 60 minutes at 37° C./5% CO2. Then, 5 μl per well of Anti-IP1-Antibody-Cryptate solution and 5 μl per well of IP1-d2 solution are added to all wells of the plate and the plate is incubated for another 60 minutes light protected at room temperature. The emissions at 620 nm and 665 nm (Excitation wavelength: 320 nm) are measured using an Envision Reader (PerkinElmer).", "units": {"IC50": "nM"}}
{"smiles": "Cc1nnc2n1-c1sc3c(c1C(c1ccccc1Cl)=NC21CC1)C[C@H](C(=O)N[C@@H]1C[C@H]1C)C3", "note": "[Example 107]", "IC50": 2.7}
{"smiles": "Cc1nnc2n1-c1sc3c(c1C(c1ccccc1Cl)=NC21CC1)C[C@H](C(=O)N[C@H]1C[C@H](C#N)C1)C3", "note": "[Example 49]", "IC50": 7.7}
{"smiles": "Cc1nnc2n1-c1sc3c(c1C(c1cc(Cl)ccc1Cl)=NC21CC1)C[C@H](C(=O)N1CCOCC1)C3", "note": "[Example 3, (13′S)-9′-(2,5-dichlorophenyl)-3′-methyl-13′-(morpholine-4-carbonyl)-16′-thia-2′,4′,5′,8′-tetraazaspiro[cyclopropane-1,7′-tetracyclo[8.6.0.0^2,6.0^11,15]hexadecane]-1′(10′),3′,5′,8′,11′(15′)-pentaene]", "IC50": 17}
{"smiles": "Cc1nnc2n1-c1sc3c(c1C(c1ccccc1Cl)=NC21CC1)C[C@H](C(=O)NC1(c2cncnc2)CC1)C3", "note": "[Example 117]", "IC50": 28}
{"smiles": "Cc1nnc2n1-c1sc3c(c1C(c1ccccc1Cl)=NC21CC1)C[C@H](C(=O)NC1CCCC1)C3", "note": "[Example 14]", "IC50": 1.9}
{"smiles": "Cc1nnc2n1-c1sc3c(c1C(c1ccccc1Cl)=NC21CC1)C[C@H](C(=O)N(C)C1CCOCC1)C3", "note": "[Example 37]", "IC50": 6.6}
{"smiles": "Cc1nnc2n1-c1sc3c(c1C(c1ccccc1Cl)=NC21CC1)C[C@H](C(=O)N[C@H]1CC[C@@H](F)C1)C3", "note": "[Example 70]", "IC50": 2.6}
{"smiles": "Cc1nnc2n1-c1sc3c(c1C(c1ccccc1Cl)=NC21CC1)C[C@H](C(=O)N[C@H]1CCc2ccccc21)C3", "note": "[Example 82]", "IC50": 1.5}
{"smiles": "Cc1nnc2n1-c1sc3c(c1C(c1ccccc1Cl)=NC21CC1)C[C@H](C(=O)N(C)[C@H]1c2ccccc2CC[C@@H]1O)C3", "note": "[Example 86]", "IC50": 4}
{"smiles": "Cc1nnc2n1-c1sc3c(c1C(c1cc(N)ccc1Cl)=NC21CC1)C[C@H](C(=O)N1CCOCC1)C3", "note": "[Example 6, 4-chloro-3-[(13′S)-3′-methyl-13′-(morpholine-4-carbonyl)-16′-thia-2′,4′,5′,8′-tetraazaspiro[cyclopropane-1,7′-tetracyclo[8.6.0.0^2,6.0^11,15]hexadecane]-1′(10′),3′,5′,8′,11′(15′)-pentaen-9′-yl]aniline]", "IC50": 25}
{"smiles": "Cc1nnc2n1-c1sc3c(c1C(c1ccccc1Cl)=NC21CC1)C[C@H](C(=O)N[C@H]1CC[C@H](C(C)(C)O)CC1)C3", "note": "[Example 98]", "IC50": 9.1}
{"smiles": "Cc1nnc2n1-c1sc3c(c1C(c1ccccc1Cl)=NC21CC1)C[C@H](C(=O)NC1CCn2nccc2C1)C3", "note": "(stereo partly shown) [Example 77]", "IC50": 10}
{"smiles": "Cc1nnc2n1-c1sc3c(c1C(c1ccccc1Cl)=NC21CC1)C[C@H](C(=O)NC1CCc2ncccc2C1)C3", "note": "(stereo partly shown) [Example 97]", "IC50": 8.9}
{"smiles": "CCCN(C(=O)[C@@H]1Cc2sc3c(c2C1)C(c1ccccc1Cl)=NC1(CC1)c1nnc(C)n1-3)C1CCOCC1", "note": "[Example 115, (13′S)-9′-(2-chlorophenyl)-3′-methyl-N-(oxan-4-yl)-N-propyl-16′-thia-2′,4′,5′,8′-tetraazaspiro-[cyclopropane-1,7′-tetracyclo[8.6.0.0^2,6.0^11,15]hexadecane]-1′(10′),3′,5′,8′,11′(15′)-pentaene-13′-carboxamide]", "IC50": 25}
{"smiles": "CCN(C(=O)[C@@H]1Cc2sc3c(c2C1)C(c1ccccc1Cl)=NC1(CC1)c1nnc(C)n1-3)[C@@H]1c2ccccc2C[C@H]1O", "note": "[Example 81]", "IC50": 3.6}
{"smiles": "Cc1nnc2n1-c1sc3c(c1C(c1ccccc1Cl)=NC21CC1)C[C@H](C(=O)N1C[C@H](C)O[C@@H](C)C1)C3", "note": "[Example 108, (13′S)-9′-(2-chlorophenyl)-13′-[(2S,6S)-2,6-dimethylmorpholine-4-carbonyl]-3′-methyl-16′-thia-2′,4′,5′,8′-tetraazaspiro[cyclopropane-1,7′-tetracyclo[8.6.0.0^2,6.0^11,15]hexadecane]-1′(10′),3′,5′,8′,11′(15′)-pentaene]", "IC50": 4.6}
{"smiles": "Cc1nnc2n1-c1sc3c(c1C(c1ccccc1Cl)=NC21CC1)C[C@H](C(=O)NC1CCc2cc(F)ccc21)C3", "note": "(stereo partly shown) [Example 61]", "IC50": 0.6}
{"smiles": "Cc1nnc2n1-c1sc3c(c1C(c1ccccc1Cl)=NC21CC1)C[C@H](C(=O)N(C)C1CCS(=O)(=O)C1)C3", "note": "(stereo partly shown) [Example 89]", "IC50": 15}
{"smiles": "Cc1nnc2n1-c1sc3c(c1C(c1ccccc1Cl)=NC21CC1)C[C@H](C(=O)NC1CC1)C3", "note": "[Example 74]", "IC50": 5.5}
{"smiles": "CC[C@@H]1C[C@H]2O[C@@H]1C[C@H]2NC(=O)[C@@H]1Cc2sc3c(c2C1)C(c1ccccc1Cl)=NC1(CC1)c1nnc(C)n1-3", "note": "[Example 101]", "IC50": 6}
{"smiles": "Cc1nnc2n1-c1sc3c(c1C(c1ccccc1Cl)=NC21CC1)C[C@H](C(=O)N(C)C1CCC1)C3", "note": "[Example 21]", "IC50": 1.1}
{"smiles": "Cc1nnc2n1-c1sc3c(c1C(c1ccccc1Cl)=NC21CC1)C[C@H](C(=O)N1CCOCC12CC2)C3", "note": "[Example 127, (13′S)-9′-(2-chlorophenyl)-3′-methyl-13′-{7-oxa-4-azaspiro[2.5]octane-4-carbonyl}-16′-thia-2′,4′,5′,8′-tetraazaspiro[cyclopropane-1,7′-tetracyclo[8.6.0.0^2,6.0^11,15]hexadecane]-1′(10′),3′,5′,8′,11′(15′)-pentaene]", "IC50": 5.8}
{"smiles": "COc1ccccc1C1=NC2(CC2)c2nnc(C)n2-c2sc3c(c21)C[C@H](C(=O)N1CCOCC1)C3", "note": "[Example 130, (13′S)-9′-(2-methoxyphenyl)-3′-methyl-13′-(morpholine-4-carbonyl)-16′-thia-2′,4′,5′,8′-tetraazaspiro[cyclopropane-1,7′-tetracyclo[8.6.0.0^2,6.0^11,15]hexadecane]-1′(10′),3′,5′,8′,11′(15′)-pentaene]", "IC50": 84}
{"smiles": "Cc1nnc2n1-c1sc3c(c1C(c1ccccc1Cl)=NC21CC1)C[C@H](C(=O)N(C)[C@@H]1CCOC1)C3", "note": "[Example 48]", "IC50": 6.7}
{"smiles": "Cc1nnc2n1-c1sc3c(c1C(c1ccccc1Cl)=NC21CC1)C[C@H](C(=O)N[C@@H]1CCc2ccccc21)C3", "note": "[Example 32]", "IC50": 1}
{"smiles": "Cc1nnc2n1-c1sc3c(c1C(c1ccccc1Cl)=NC21CC1)C[C@H](C(=O)N[C@H]1CCc2c(F)cccc21)C3", "note": "[Example 92]", "IC50": 0.9}
{"smiles": "Cc1nnc2n1-c1sc3c(c1C(c1ccccc1Cl)=NC21CC1)C[C@H](C(=O)NC1(C)CCOCC1)C3", "note": "[Example 45]", "IC50": 12}
{"smiles": "Cc1nnc2n1-c1sc3c(c1C(c1ccccc1Cl)=NC21CC1)C[C@H](C(=O)N(C)C1CCC(C)(C)CC1)C3", "note": "[Example 79]", "IC50": 0.9}
{"smiles": "CCn1ncc2c1CC[C@@H](NC(=O)[C@@H]1Cc3sc4c(c3C1)C(c1ccccc1Cl)=NC1(CC1)c1nnc(C)n1-4)C2", "note": "[Example 99]", "IC50": 8.1}
{"smiles": "Cc1nnc2n1-c1sc3c(c1C(c1ccccc1Cl)=NC21CC1)C[C@H](C(=O)N(C)C1CCCCCC1)C3", "note": "[Example 75]", "IC50": 1.5}
{"smiles": "Cc1nnc2n1-c1sc3c(c1C(c1ccccc1Cl)=NC21CC1)C[C@H](C(=O)N1CCC(F)(F)CC1)C3", "note": "[Example 129, (13′S)-9′-(2-chlorophenyl)-13′-(4,4-difluoropiperidine-1-carbonyl)-3′-methyl-16′-thia-2′,4′,5′,8′-tetraazaspiro[cyclopropane-1,7′-tetracyclo[8.6.0.0^2,6.0^11,15]hexadecane]-1′(10′),3′,5′,8′,11′(15′)-pentaene]", "IC50": 2.5}
{"smiles": "Cc1nnc2n1-c1sc3c(c1C(c1ccccc1Cl)=NC21CC1)C[C@H](C(=O)NC1CC(F)(F)C1)C3", "note": "[Example 27]", "IC50": 2.1}
{"smiles": "CCN(C(=O)[C@@H]1Cc2sc3c(c2C1)C(c1ccccc1Cl)=NC1(CC1)c1nnc(C)n1-3)C1CCOCC1", "note": "[Example 83]", "IC50": 6.9}
{"smiles": "Cc1nnc2n1-c1sc3c(c1C(c1ccccc1Cl)=NC21CC1)C[C@H](C(=O)NC1CCCCC1)C3", "note": "[Example 59]", "IC50": 1.6}
{"smiles": "CCc1nnc2n1-c1sc3c(c1C(c1ccccc1Cl)=NC21CC1)C[C@H](C(=O)N1CCOCC1)C3", "note": "[Example 119, (13′S)-9′-(2-chlorophenyl)-3′-ethyl-13′-(morpholine-4-carbonyl)-16′-thia-2′,4′,5′,8′-tetraazaspiro[cyclopropane-1,7′-tetracyclo[8.6.0.0^2,6.0^11,15]hexadecane]-1′(10′),3′,5′,8′,11′(15′)-pentaene]", "IC50": 15}
{"biological_target": "PAFR (Homo sapiens, UniProt P25105)", "assay": "cellular HTRF IP1 assay: inhibition of PAFR activation by PAF C-16 ligand (endpoint assay)", "type": "cell-based", "set-up": "expressed in transfected cells; host or cells: HEK293", "details": "S-bepafant and its methylated derivatives in the above-mentioned assay", "method": "as §1, §2, §3", "units": {"IC50": "nM"}}
{"smiles": "Cc1nnc2n1-c1sc3c(c1C(c1ccccc1Cl)=N[C@H]2C)C[C@H](C(=O)N1CCOCC1)C3", "note": "[comparative example 1a, reference compound]", "IC50": 6.9}
{"smiles": "Cc1nnc2n1-c1sc3c(c1C(c1ccccc1Cl)=N[C@@H]2C)C[C@H](C(=O)N1CCOCC1)C3", "note": "[comparative example 1b, reference compound]", "IC50": "> 1000"}
{"biological_target": "PAFR (Homo sapiens, UniProt P25105)", "assay": "cellular HTRF IP1 assay: inhibition of PAFR activation by PAF C-16 ligand (endpoint assay)", "type": "cell-based", "set-up": "expressed in transfected cells; host or cells: HEK293", "details": "dedicated head-to-head comparison assay run: cyclopropylene vs di-methyl / cyclobutylene analogues", "method": "as §1, §2, §3", "units": {"IC50": "nM"}}
{"smiles": "Cc1nnc2n1-c1sc3c(c1C(c1ccccc1Cl)=NC2(C)C)C[C@H](C(=O)NC1CCc2cc(F)ccc21)C3", "note": "(stereo partly shown) [reference compound]", "IC50": 4.9}
{"smiles": "Cc1nnc2n1-c1sc3c(c1C(c1ccccc1Cl)=NC2(C)C)C[C@H](C(=O)NC1CCC1)C3", "note": "[reference compound]", "IC50": 7.6}
{"smiles": "Cc1nnc2n1-c1sc3c(c1C(c1ccccc1Cl)=NC21CC1)C[C@H](C(=O)NC1CCc2cc(F)ccc21)C3", "note": "(stereo partly shown) [Example 61]", "IC50": 1.1}
{"smiles": "Cc1nnc2n1-c1sc3c(c1C(c1ccccc1Cl)=NC2(C)C)C[C@H](C(=O)NC1CCOCC1)C3", "note": "[reference compound]", "IC50": 65}
{"smiles": "Cc1nnc2n1-c1sc3c(c1C(c1ccccc1Cl)=NC21CC1)C[C@H](C(=O)N1CCC(F)(F)CC1)C3", "note": "[Example 129, (13′S)-9′-(2-chlorophenyl)-13′-(4,4-difluoropiperidine-1-carbonyl)-3′-methyl-16′-thia-2′,4′,5′,8′-tetraazaspiro[cyclopropane-1,7′-tetracyclo[8.6.0.0^2,6.0^11,15]hexadecane]-1′(10′),3′,5′,8′,11′(15′)-pentaene]", "IC50": 2.6}
{"smiles": "Cc1nnc2n1-c1sc3c(c1C(c1ccccc1Cl)=NC2(C)C)C[C@H](C(=O)N1CCOCC1)C3", "note": "[comparative example 1, reference compound]", "IC50": 89}
